Laboratory results as given in PubChem BioAssay (NCI).
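Where inhibition never reached the appropriate level, the endpoint shown equals the highest concentration tested. Otherwise, values were interpolated linearly from a five-concentration, 48-hour dose response in 96-well plates. GI50: concentration for 50% inhibition of growth. TGI: concentration producing complete growth inhibition.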

Key:
Experiment in all cases: DTP human tumour cell line panel, 48 h
[1] = system: SF-268 CNS
[2] = system: HS 578T breast
[3] = system: MDA-MB-435
[4] = system: A498 renal
[5] = system: NCI/ADR-RES ovarian
[6] = system: EKVX NSCLC
[7] = system: PC-3 prostate
[8] = system: UACC-62 melanoma
[9] = system: DU-145 prostate
[10] = system: SW-620 colon
[11] = system: NCI-H226 lung
[12] = system: SK-MEL-5 melanoma
[13] = system: NCI-H522 lung
[14] = system: T-47D breast
[15] = system: RPMI-8226 leukemia
[16] = system: HCT-116 colon
[17] = system: M14 melanoma
[18] = system: UO-31 renal
[19] = system: OVCAR-4 ovarian
[20] = system: TK-10 renal
[21] = system: ACHN renal
[22] = system: BT-549 breast
[23] = system: HCC-2998 colon
[24] = system: CAKI-1 renal
[25] = system: 786-0 renal
[26] = system: KM12 colon
[27] = system: SN12C renal
[28] = system: OVCAR-3 ovarian
[29] = system: SK-MEL-2 melanoma
[30] = system: HOP-92 NSCLC
[31] = system: SK-MEL-28 melanoma
[32] = system: RXF 393 renal
[33] = system: U251 CNS
[34] = system: MCF7 breast
[35] = system: SF-295 CNS
[36] = system: SK-OV-3 ovarian
[37] = system: SNB-75 CNS
[38] = system: NCI-H460 lung
[39] = system: OVCAR-5 ovarian
[40] = system: HT29 colon
[41] = system: NCI-H23 lung
[42] = system: HCT-15 colon
[43] = system: MDA-MB-231 breast
[44] = system: UACC-257 melanoma
[45] = system: A549 NSCLC

CN1CCN(CCCOc2ccc3nc(Nc4cc(Cl)cc(Cl)c4)ccc3c2)CC1
GI50 [1]: 1480 nM | TGI [1]: 3020 nM | GI50 [2]: 1870 nM | TGI [2]: 5240 nM | GI50 [3]: 1500 nM | TGI [3]: 2940 nM | GI50 [4]: 1800 nM | TGI [4]: 3220 nM | GI50 [5]: 1990 nM | TGI [5]: 5780 nM | GI50 [6]: 1630 nM | TGI [6]: 3380 nM | GI50 [7]: 1930 nM | TGI [7]: 3710 nM | GI50 [8]: 1810 nM | TGI [8]: 3760 nM | GI50 [9]: 1570 nM | TGI [9]: 3070 nM | GI50 [10]: 1680 nM | TGI [10]: 3460 nM | GI50 [11]: 2140 nM | TGI [11]: 5680 nM | GI50 [12]: 1760 nM | TGI [12]: 3310 nM | GI50 [13]: 2060 nM | TGI [13]: 3740 nM | GI50 [14]: 1990 nM | TGI [14]: 4390 nM | GI50 [15]: 2160 nM | TGI [15]: 4780 nM | GI50 [16]: 1580 nM | TGI [16]: 2980 nM | GI50 [17]: 1500 nM | TGI [17]: 3080 nM | GI50 [18]: 1580 nM | TGI [18]: 3240 nM | GI50 [19]: 1790 nM | TGI [19]: 5650 nM | GI50 [20]: 2330 nM | TGI [20]: 3920 nM | GI50 [21]: 1510 nM | TGI [21]: 2900 nM | GI50 [22]: 1900 nM | TGI [22]: 3580 nM | GI50 [23]: 1540 nM | TGI [23]: 3060 nM | GI50 [24]: 1820 nM | TGI [24]: 3720 nM | GI50 [25]: 1580 nM | TGI [25]: 3080 nM | GI50 [26]: 1530 nM | TGI [26]: 2990 nM | GI50 [27]: 1810 nM | TGI [27]: 3770 nM | GI50 [28]: 1560 nM | TGI [28]: 3220 nM | GI50 [29]: 2030 nM | TGI [29]: 4040 nM | GI50 [30]: 1460 nM | TGI [30]: 3200 nM | GI50 [31]: 1630 nM | TGI [31]: 3210 nM | GI50 [32]: 1330 nM | TGI [32]: 2930 nM | GI50 [33]: 1610 nM | TGI [33]: 3130 nM | GI50 [34]: 1480 nM | TGI [34]: 3050 nM | GI50 [35]: 1410 nM | TGI [35]: 2890 nM | GI50 [36]: 2000 nM | TGI [36]: 3690 nM | GI50 [37]: 1110 nM | TGI [37]: 2560 nM | GI50 [38]: 1540 nM | TGI [38]: 3180 nM | GI50 [39]: 1710 nM | TGI [39]: 3350 nM | GI50 [40]: 548 nM | TGI [40]: 1840 nM | GI50 [41]: 1630 nM | TGI [41]: 3540 nM | GI50 [42]: 677 nM | TGI [42]: 2110 nM | GI50 [43]: 1560 nM | TGI [43]: 3310 nM | GI50 [44]: 2130 nM | TGI [44]: 3850 nM | GI50 [45]: 2110 nM | TGI [45]: 3800 nM
